Assay results published in patent US20230172206A1 (BASF SE, priority 2020, published 2023).

Assays:
[1] = test system: Phakopsora pachyrhizi (F129L); experiment: Protective control of soybean rust on soybeans (PHAKPA P2); format: in vivo; conditions: for % PHAKPA (F129L) Disease level P2 at 4 ppm: protective P2, 4 ppm; for % PHAKPA (F129L) Disease level P2 at 16 ppm: protective P2, 16 ppm
[2] = test system: Phakopsora pachyrhizi (F129L); experiment: Protective control of soybean rust on soybeans (PHAKPA P6); format: in vivo; conditions: for % PHAKPA (F129L) Disease level P6 at 4 ppm: protective P6, 4 ppm; for % PHAKPA (F129L) Disease level P6 at 16 ppm: protective P6, 16 ppm

SMILES	% PHAKPA (F129L) Disease level P2 at 4 ppm ([1]; soybean rust F129L isolate) [%]	% PHAKPA (F129L) Disease level P2 at 16 ppm ([1]; soybean rust F129L isolate) [%]	% PHAKPA (F129L) Disease level P6 at 4 ppm ([2]; soybean rust F129L isolate) [%]	% PHAKPA (F129L) Disease level P6 at 16 ppm ([2]; soybean rust F129L isolate) [%]	PHAKPA (F129L) Disease level (%) P2 at 16 ppm ([1]; protective, inoculation 2 days after spraying, 16 ppm, % diseased leaf area) [%]	PHAKPA (F129L) Disease level (%) P6 at 16 ppm ([2]; protective, inoculation six days after spraying, 16 ppm, % diseased leaf area) [%]	% PHAKPA (F129L) Disease level P2 at 4 ppm ([1]; F129L isolate) [%]	% PHAKPA (F129L) Disease level P2 at 16 ppm ([1]; F129L isolate) [%]	% PHAKPA (F129L) Disease level P6 at 4 ppm ([2]; F129L isolate) [%]	% PHAKPA (F129L) Disease level P6 at 16 ppm ([2]; F129L isolate) [%]
CO/N=C(/C(=O)OC)c1cccc(C)c1CO/N=C(\C)c1c(F)cccc1Cl [compound 283]	83	30	87	22	–	–	–	–	–	–
CNC(=O)/C(=N/OC)c1cccc(C)c1CO/N=C(\C)c1cc(F)ccc1F [compound 131]	0	0	2	0	0	0	–	–	–	–
CO/N=C(/C(=O)OC)c1cccc(C)c1CO/N=C(\C)c1cccc(F)c1C(F)(F)F [compound 330]	83	24	93	17	–	–	–	–	–	–
CNC(=O)/C(=N/OC)c1cccc(C)c1CO/N=C(\C)c1ccc(-c2ccccc2)cc1C(F)(F)F [compound 413]	–	–	–	–	–	–	40	15	33	15
CO/N=C(/C(=O)OC)c1cccc(C)c1CO/N=C(\C)c1c(Cl)cc(Cl)cc1OC(F)(F)F [compound 427]	–	–	–	–	–	–	100	90	60	47
CO/N=C(/C(=O)OC)c1cccc(Br)c1CO/N=C(\C)c1ccccc1 [compound 395]	–	–	–	–	–	–	43	4	67	18
C=Cc1cccc(/C(=N\OC)C(=O)NC)c1CO/N=C(\C)c1ccccc1 [compound 400]	–	–	–	–	–	–	2	0	8	0
CNC(=O)/C(=N/OC)c1cccc(C)c1CO/N=C(\C)c1ccccc1COC [compound 277]	100	60	100	100	–	–	–	–	–	–
CNC(=O)/C(=N/OC)c1cccc(OC)c1CO/N=C(\C)c1cccc(C(F)(F)F)c1 [compound 461]	–	–	–	–	–	–	26	2	52	6
CNC(=O)/C(=N/OC)c1cccc(C)c1CO/N=C(\C)c1c(F)cccc1OC(F)(F)F [compound 325]	24	4	22	1	–	–	–	–	–	–
CNC(=O)/C(=N/OC)c1cccc(C)c1CO/N=C(\C)c1ccccc1CC(C)C [compound 221]	100	63	100	100	–	–	–	–	–	–
C#Cc1cc(F)ccc1/C(C)=N/OCc1c(C)cccc1/C(=N\OC)C(=O)NC [compound 286]	67	15	97	27	–	–	–	–	–	–
CO/C=C(/C(=O)OC)c1cccc(C)c1CO/N=C(\C)c1c(Cl)ccc(F)c1OC(F)(F)F [compound 442]	–	–	–	–	–	–	100	93	80	77
CO/N=C(/C(=O)OC)c1cccc(C)c1CO/N=C(\C)c1c(C)cccc1F [compound 285]	87	50	90	35	–	–	–	–	–	–
CO/C=C(/C(=O)OC)c1cccc(C)c1CO/N=C(\C)c1cc(F)c(F)cc1CC(F)(F)F [compound 405]	–	–	–	–	–	–	97	27	70	27
CO/N=C(/C(=O)OC)c1cccc(C)c1CO/N=C(\C)c1ccccc1C(C)C [compound 218]	100	87	100	100	–	–	–	–	–	–
CO/N=C(/C(=O)OC)c1cccc(C)c1CO/N=C(\C)c1ccc(OC(F)(F)F)cc1Cl [compound 268]	63	6	60	17	–	–	–	–	–	–
CNC(=O)/C(=N/OC)c1cccc(C)c1CO/N=C(\C)c1ccc(F)cc1CC(F)(F)F [compound 394]	–	–	–	–	–	–	9	3	12	2

SMILES	% PHAKPA (F129L) Disease level P2 at 4 ppm ([1]; soybean rust F129L isolate) [%]	% PHAKPA (F129L) Disease level P2 at 16 ppm ([1]; soybean rust F129L isolate) [%]	% PHAKPA (F129L) Disease level P6 at 4 ppm ([2]; soybean rust F129L isolate) [%]	% PHAKPA (F129L) Disease level P6 at 16 ppm ([2]; soybean rust F129L isolate) [%]	PHAKPA (F129L) Disease level (%) P2 at 16 ppm ([1]; protective, inoculation 2 days after spraying, 16 ppm, % diseased leaf area) [%]	PHAKPA (F129L) Disease level (%) P6 at 16 ppm ([2]; protective, inoculation six days after spraying, 16 ppm, % diseased leaf area) [%]	% PHAKPA (F129L) Disease level P2 at 4 ppm ([1]; F129L isolate) [%]	% PHAKPA (F129L) Disease level P2 at 16 ppm ([1]; F129L isolate) [%]	% PHAKPA (F129L) Disease level P6 at 4 ppm ([2]; F129L isolate) [%]	% PHAKPA (F129L) Disease level P6 at 16 ppm ([2]; F129L isolate) [%]
CO/N=C(/C(=O)OC)c1cccc(C)c1CO/N=C(\C)c1ccccc1C#N [compound 224]	97	100	100	100	–	–	–	–	–	–
CO/C=C(/C(=O)OC)c1cccc(C)c1CO/N=C(\C)c1ccc(F)c(F)c1OC(F)(F)F [compound 450]	–	–	–	–	–	–	3	1	4	1
CO/C=C(/C(=O)OC)c1cccc(C)c1CO/N=C(\C)c1ccc(Cl)c(Cl)c1C(F)(F)F [compound 430]	–	–	–	–	–	–	22	6	37	17
CNC(=O)/C(=N/OC)c1cccc(C)c1CO/N=C(\C)c1cccc(F)c1OC(F)(F)F [compound 354]	17	2	21	4	–	–	–	–	–	–
CNC(=O)/C(=N/OC)c1cccc(C)c1CO/N=C(\C)c1ccccc1C1CC1(F)F (stereo not shown) [compound 288]	87	30	97	20	–	–	–	–	–	–
CNC(=O)/C(=N/OC)c1cccc(C)c1CO/N=C(\C)c1ccc(/C(C)=N\OC)cc1OC(F)(F)F [compound 415]	–	–	–	–	–	–	47	5	67	11
CO/N=C(/C(=O)OC)c1cccc(C)c1CO/N=C(\C)c1ccc(OC(F)(F)F)cc1C [compound 259]	80	17	93	40	–	–	–	–	–	–
CO/N=C(/C(=O)OC)c1cccc(C)c1CO/N=C(\C)c1c(F)cc(Br)cc1C(F)(F)F [compound 368]	83	47	90	73	–	–	–	–	–	–
CO/N=C(/C(=O)OC)c1cccc(C)c1CO/N=C(\C)c1ccccc1CC(F)(F)F [compound 222]	100	57	100	93	–	–	–	–	–	–
CO/C=C(/C(=O)OC)c1cccc(C)c1CO/N=C(\C)c1ccccc1OC(F)(F)F [compound 462]	–	–	–	–	–	–	37	6	55	10
CNC(=O)/C(=N/OC)c1cccc(C)c1CO/N=C(\C)c1ccc(OC)cc1C(F)(F)F [compound 324]	2	1	12	0	–	–	–	–	–	–
CO/N=C(/C(=O)OC)c1cccc(C)c1CO/N=C(\C)c1ccc(F)c(F)c1OC(F)(F)F [compound 447]	–	–	–	–	–	–	7	0	33	1
CO/C=C(/C(=O)OC)c1cccc(C)c1CO/N=C(\C)c1c(F)cccc1C(F)(F)F [compound 390]	–	–	–	–	–	–	22	0	18	2
CNC(=O)/C(=N/OC)c1cccc(C)c1CO/N=C(\C)c1c(Cl)ccc(F)c1OC(F)(F)F [compound 440]	–	–	–	–	–	–	93	23	73	23
CNC(=O)/C(=N/OC)c1cccc(C)c1CO/N=C(\C)c1c(F)ccc(C(F)(F)F)c1NC [compound 233]	100	57	87	27	–	–	–	–	–	–
CO/N=C(/C(=O)OC)c1cccc(C)c1CO/N=C(\C)c1ccc(-c2ccc(F)cc2)cc1C(F)(F)F [compound 425]	–	–	–	–	–	–	27	28	53	40
CNC(=O)/C(=N/OC)c1cccc(C)c1CO/N=C(\C)c1ccc(Cc2ccccc2)cc1C(F)(F)F [compound 407]	–	–	–	–	–	–	12	6	17	4
